biological target: T1, recombinant human Estrogen Receptor alpha ligand binding domain, residues 307-554 (ER alpha-LBD (GST)) (Homo sapiens, UniProt P03372); experiment: ERα binding assay (LanthaScreen TR-FRET competition); conditions: TR-FRET competition with Fluormone ES2 tracer, 4 hours at room temperature; single experiment or average of two or more
T1 construct: made in house
T1 sequence (P03372 307-554): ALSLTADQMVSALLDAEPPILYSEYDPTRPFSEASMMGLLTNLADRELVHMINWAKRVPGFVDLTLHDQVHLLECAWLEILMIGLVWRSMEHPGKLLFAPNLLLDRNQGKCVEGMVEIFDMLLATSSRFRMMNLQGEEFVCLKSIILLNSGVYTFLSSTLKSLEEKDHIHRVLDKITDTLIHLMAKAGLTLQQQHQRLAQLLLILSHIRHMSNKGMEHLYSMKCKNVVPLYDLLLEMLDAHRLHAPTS

`Cc1ncsc1-c1ccc(CNC(=O)[C@@H]2C[C@@H](O)CN2C(=O)[C@@H](NC(=O)COCCCCOCCOc2cc(F)c([C@@H]3c4[nH]c5ccccc5c4C[C@@H](C)N3CC(C)(C)F)c(F)c2)C(C)(C)C)cc1` [Example 16, (2S,4R)-1-((S)-2-(2-(4-(2-(3,5-Difluoro-4-((1R,3R)-2-(2-fluoro-2-methylpropyl)-3-methyl-2,3,4,9-tetrahydro-1H-pyrido[3,4-b]indol-1-yl)phenoxy)ethoxy)butoxy)acetamido)-3,3-dimethylbutanoyl)-4-hydroxy-N-(4-(4-methylthiazol-5-yl)benzyl)pyrrolidine-2-carboxamide] and `Cc1ncsc1-c1ccc(CNC(=O)[C@@H]2C[C@@H](O)CN2C(=O)[C@@H](NC(=O)COCCCCCCCOc2cc(F)c([C@@H]3c4[nH]c5ccccc5c4C[C@@H](C)N3CC(C)(C)F)c(F)c2)C(C)(C)C)cc1` [Example 7, (2S,4R)-1-((S)-2-(2-((7-(3,5-Difluoro-4-((1R,3R)-2-(2-fluoro-2-methylpropyl)-3-methyl-2,3,4,9-tetrahydro-1H-pyrido[3,4-b]indol-1-yl)phenoxy)heptyl)oxy)acetamido)-3,3-dimethylbutanoyl)-4-hydroxy-N-(4-(4-methylthiazol-5-yl)benzyl)pyrrolidine-2-carboxamide] are within 1.5-fold of each other in IC50: 0.8 nM for the first, 1.2 nM for the second.

`Cc1ncsc1-c1ccc(CNC(=O)[C@@H]2C[C@@H](O)CN2C(=O)[C@@H](NC(=O)COCC/C=C/CCOc2cc(F)c([C@@H]3c4[nH]c5ccccc5c4C[C@@H](C)N3CC(C)(C)F)c(F)c2)C(C)(C)C)cc1` [Example 22, (2S,4R)-1-((S)-2-(2-(((E)-6-(3,5-Difluoro-4-((1R,3R)-2-(2-fluoro-2-methylpropyl)-3-methyl-2,3,4,9-tetrahydro-1H-pyrido[3,4-b]indol-1-yl)phenoxy)hex-3-en-1-yl)oxy)acetamido)-3,3-dimethylbutanoyl)-4-hydroxy-N-(4-(4-methylthiazol-5-yl)benzyl)pyrrolidine-2-carboxamide] and `Cc1ncsc1-c1ccc(CNC(=O)[C@@H]2C[C@@H](O)CN2C(=O)[C@@H](NC(=O)COCCC(F)(F)CCOc2cc(F)c([C@@H]3c4[nH]c5ccccc5c4C[C@@H](C)N3CC(C)(C)F)c(F)c2)C(C)(C)C)cc1` [Example 130, (2S,4R)-1-((S)-2-(2-((5-(3,5-Difluoro-4-((1R,3R)-2-(2-fluoro-2-methylpropyl)-3-methyl-2,3,4,9-tetrahydro-1H-pyrido[3,4-b]indol-1-yl)phenoxy)-3,3-difluoropentyl)oxy)acetamido)-3,3-dimethylbutanoyl)-4-hydroxy-N-(4-(4-methylthiazol-5-yl)benzyl)pyrrolidine-2-carboxamide] are within 1.5-fold of each other in IC50: 0.7 nM for the first, 0.9 nM for the second.

`Cc1ncsc1-c1ccc([C@H](C)NC(=O)[C@@H]2C[C@@H](O)CN2C(=O)[C@@H](NC(=O)COCCCCOCCCOc2cc(F)c([C@@H]3c4[nH]c5ccccc5c4C[C@@H](C)N3CC(C)(C)F)c(F)c2)C(C)(C)C)cc1` [Example 154, (2S,4R)-1-((S)-2-(2-(4-(3-(3,5-Difluoro-4-((1R,3R)-2-(2-fluoro-2-methylpropyl)-3-methyl-2,3,4,9-tetrahydro-1H-pyrido[3,4-b]indol-1-yl)phenoxy)propoxy)butoxy)acetamido)-3,3-dimethylbutanoyl)-4-hydroxy-N—((S)-1-(4-(4-methylthiazol-5-yl)phenyl)ethyl)pyrrolidine-2-carboxamide] and `Cc1ncsc1-c1ccc([C@H](C)NC(=O)[C@@H]2C[C@@H](O)CN2C(=O)[C@@H](NC(=O)COCCOCCCCCOc2cc(F)c([C@@H]3c4[nH]c5ccccc5c4C[C@@H](C)N3CC(C)(C)F)c(F)c2)C(C)(C)C)cc1` [Example 156, (2S,4R)-1-((S)-2-(2-(2-((5-(3,5-Difluoro-4-((1R,3R)-2-(2-fluoro-2-methylpropyl)-3-methyl-2,3,4,9-tetrahydro-1H-pyrido[3,4-b]indol-1-yl)phenoxy)pentyl)oxy)ethoxy)acetamido)-3,3-dimethylbutanoyl)-4-hydroxy-N—((S)-1-(4-(4-methylthiazol-5-yl)phenyl)ethyl)pyrrolidine-2-carboxamide] are within 1.5-fold of each other in IC50: 0.4 nM for the first, 0.6 nM for the second.

First: Cc1ncsc1-c1ccc(CNC(=O)[C@@H]2C[C@@H](O)CN2C(=O)[C@@H](NC(=O)COCCOCCCCCOc2cnc([C@@H]3c4[nH]c5ccccc5c4C[C@@H](C)N3CC(C)(F)F)c(F)c2)C(C)(C)C)cc1 [Example 164, (2S,4R)-1-((S)-2-(2-(2-((5-((6-((1S,3R)-2-(2,2-Difluoropropyl)-3-methyl-2,3,4,9-tetrahydro-1H-pyrido[3,4-b]indol-1-yl)-5-fluoropyridin-3-yl)oxy)pentyl)oxy)ethoxy)acetamido)-3,3-dimethylbutanoyl)-4-hydroxy-N-(4-(4-methylthiazol-5-yl)benzyl)pyrrolidine-2-carboxamide]
Second: Cc1ncsc1-c1ccc(CNC(=O)[C@@H]2C[C@@H](O)CN2C(=O)[C@@H](NC(=O)CCCCOCCCCCOc2cc(F)c([C@@H]3c4[nH]c5ccccc5c4C[C@@H](C)N3CC(C)(C)F)c(F)c2)C(C)(C)C)cc1 [Example 113, (2S,4R)-1-((S)-2-(5-((5-(3,5-Difluoro-4-((1R,3R)-2-(2-fluoro-2-methylpropyl)-3-methyl-2,3,4,9-tetrahydro-1H-pyrido[3,4-b]indol-1-yl)phenoxy)pentyl)oxy)pentanamido)-3,3-dimethylbutanoyl)-4-hydroxy-N-(4-(4-methylthiazol-5-yl)benzyl)pyrrolidine-2-carboxamide]
The IC50 of the first is 11-fold higher: 6.6 nM for the first, 0.6 nM for the second.

Going from `Cc1ncsc1-c1ccc(CNC(=O)[C@@H]2C[C@@H](O)CN2C(=O)[C@@H](NC(=O)COCCCOCCOc2ccc([C@@H]3c4[nH]c5ccccc5c4C[C@@H](C)N3CC(F)F)nc2)C(C)(C)C)cc1` [Example 26, (2S,4R)-1-((S)-2-(2-(3-(2-((6-((1S,3R)-2-(2,2-Difluoroethyl)-3-methyl-2,3,4,9-tetrahydro-1H-pyrido[3,4-b]indol-1-yl)pyridin-3-yl)oxy)ethoxy)propoxy)acetamido)-3,3-dimethylbutanoyl)-4-hydroxy-N-(4-(4-methylthiazol-5-yl)benzyl)pyrrolidine-2-carboxamide] to `Cc1ncsc1-c1ccc(CNC(=O)[C@@H]2C[C@@H](O)CN2C(=O)[C@@H](NC(=O)COCCOc2ccc(COc3cc(F)c([C@@H]4c5[nH]c6ccccc6c5C[C@@H](C)N4CC(C)(C)F)c(F)c3)cc2)C(C)(C)C)cc1` [Example 5, (2S,4R)-1-((S)-2-(2-(2-(4-((3,5-Difluoro-4-((1R,3R)-2-(2-fluoro-2-methylpropyl)-3-methyl-2,3,4,9-tetrahydro-1H-pyrido[3,4-b]indol-1-yl)phenoxy)methyl)phenoxy)ethoxy)acetamido)-3,3-dimethylbutanoyl)-4-hydroxy-N-(4-(4-methylthiazol-5-yl)benzyl)pyrrolidine-2-carboxamide], the IC50 falls from 25 nM to 0.8 nM (31-fold). The second is the more potent here.

Compared with `Cc1ncsc1-c1ccc([C@H](C)NC(=O)[C@@H]2C[C@@H](O)CN2C(=O)[C@@H](NC(=O)COCCCCCOCCOc2cc(F)c([C@@H]3c4[nH]c5ccccc5c4C[C@@H](C)N3CC(C)(C)F)c(F)c2)C(C)(C)C)cc1` [Example 157, (2S,4R)-1-((S)-2-(2-((5-(2-(3,5-Difluoro-4-((1R,3R)-2-(2-fluoro-2-methylpropyl)-3-methyl-2,3,4,9-tetrahydro-1H-pyrido[3,4-b]indol-1-yl)phenoxy)ethoxy)pentyl)oxy)acetamido)-3,3-dimethylbutanoyl)-4-hydroxy-N—((S)-1-(4-(4-methylthiazol-5-yl)phenyl)ethyl)pyrrolidine-2-carboxamide], `Cc1ncsc1-c1ccc([C@H](C)NC(=O)[C@@H]2C[C@@H](O)CN2C(=O)[C@@H](NC(=O)COCCOCCCCCOc2cc(F)c([C@@H]3c4[nH]c5ccccc5c4C[C@@H](C)N3CC(F)(F)F)c(F)c2)C(C)(C)C)cc1` [Example 140, (2S,4R)-1-((S)-2-(2-(2-((5-(3,5-Difluoro-4-((1R,3R)-3-methyl-2-(2,2,2-trifluoroethyl)-2,3,4,9-tetrahydro-1H-pyrido[3,4-b]indol-1-yl)phenoxy)pentyl)oxy)ethoxy)acetamido)-3,3-dimethylbutanoyl)-4-hydroxy-N—((S)-1-(4-(4-methylthiazol-5-yl)phenyl)ethyl)pyrrolidine-2-carboxamide] is 1.6-fold lower in IC50: 0.8 nM for the first, 0.5 nM for the second.

Compared with `Cc1ncsc1-c1ccc([C@H](C)NC(=O)[C@@H]2C[C@@H](O)CN2C(=O)[C@@H](NC(=O)COCCc2ccc(COc3cc(F)c([C@@H]4c5[nH]c6ccccc6c5C[C@@H](C)N4CC(C)(C)F)c(F)c3)nc2)C(C)(C)C)cc1` [Example 159, (2S,4R)-1-((S)-2-(2-(2-(6-((3,5-Difluoro-4-((1R,3R)-2-(2-fluoro-2-methylpropyl)-3-methyl-2,3,4,9-tetrahydro-1H-pyrido[3,4-b]indol-1-yl)phenoxy)methyl)pyridin-3-yl)ethoxy)acetamido)-3,3-dimethylbutanoyl)-4-hydroxy-N—((S)-1-(4-(4-methylthiazol-5-yl)phenyl)ethyl)pyrrolidine-2-carboxamide], `Cc1ncsc1-c1ccc(CNC(=O)[C@@H]2C[C@@H](O)CN2C(=O)[C@@H](NC(=O)COCCOCCOCCOCCOc2cc(F)c([C@@H]3c4[nH]c5ccccc5c4C[C@@H](C)N3CC(C)(C)F)c(F)c2)C(C)(C)C)cc1` [Example 37, (2S,4R)-1-((S)-2-(tert-Butyl)-17-(3,5-difluoro-4-((1R,3R)-2-(2-fluoro-2-methylpropyl)-3-methyl-2,3,4,9-tetrahydro-1H-pyrido[3,4-b]indol-1-yl)phenoxy)-4-oxo-6,9,12,15-tetraoxa-3-azaheptadecanoyl)-4-hydroxy-N-(4-(4-methylthiazol-5-yl)benzyl)pyrrolidine-2-carboxamide] is 9.1-fold higher in IC50: 0.7 nM for the first, 6.4 nM for the second.

— US10519152B2, “Compounds and their use in treating cancer” (AstraZeneca AB, priority 2017, dated 2019)
